Tested on: A375 multi-cell spheroids with HUVEC/MSC, viability
Test: Anticancer human tumor A375 cell line growth inhibition [GQUAD];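 also: spheroids exposed to compounds for seven days before readout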
Details: for IC50: curve of first compound; for viability, T/C: stronger effect = lower value
How it was run: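 Multi-cell-type spheroids of tumor cells with HUVEC and mesenchymal stem cells, treated with drug combinations. Concentrations descend in half-log steps from near clinical Cmax, or from 10 microM where Cmax is unknown; viability read-out.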

[1] = second compound 0.0316 µM, first compound 0.0316 µM
[2] = second compound 0.0316 µM, first compound 0.1 µM
[3] = second compound 0.0316 µM, first compound 0.316 µM
[4] = second compound 0.0316 µM, first compound 1 µM
[5] = second compound 0.0316 µM, first compound 3.16 µM
[6] = second compound 0.0316 µM, first compound 10 µM
[7] = second compound 0.1 µM, first compound 0.0316 µM
[8] = second compound 0.1 µM, first compound 0.1 µM
[9] = second compound 0.1 µM, first compound 0.316 µM
[10] = second compound 0.1 µM, first compound 1 µM
[11] = second compound 0.1 µM, first compound 3.16 µM
[12] = second compound 0.1 µM, first compound 10 µM
[13] = second compound 0.316 µM, first compound 0.0316 µM
[14] = second compound 0.316 µM, first compound 0.1 µM
[15] = second compound 0.316 µM, first compound 0.316 µM
[16] = second compound 0.316 µM, first compound 1 µM
[17] = second compound 0.316 µM, first compound 3.16 µM
[18] = second compound 0.316 µM, first compound 10 µM
[19] = second compound 1 µM, first compound 0.0316 µM
[20] = second compound 1 µM, first compound 0.1 µM
[21] = second compound 1 µM, first compound 0.316 µM
[22] = second compound 1 µM, first compound 1 µM
[23] = second compound 1 µM, first compound 3.16 µM
[24] = second compound 1 µM, first compound 10 µM
[25] = second compound 3.16 µM, first compound 0.0316 µM
[26] = second compound 3.16 µM, first compound 0.1 µM
[27] = second compound 3.16 µM, first compound 0.316 µM
[28] = second compound 3.16 µM, first compound 1 µM
[29] = second compound 3.16 µM, first compound 3.16 µM
[30] = second compound 3.16 µM, first compound 10 µM
[31] = second compound 10 µM, first compound 0.0316 µM
[32] = second compound 10 µM, first compound 0.1 µM
[33] = second compound 10 µM, first compound 0.316 µM
[34] = second compound 10 µM, first compound 1 µM
[35] = second compound 10 µM, first compound 3.16 µM
[36] = second compound 10 µM, first compound 10 µM

For `C=CC(=O)N1CCN(c2nc(=O)n(-c3c(C)ccnc3C(C)C)c3nc(-c4c(O)cccc4F)c(F)cc23)C(C)C1` (stereo unspecified) + CN(C)c1ccc(Nc2c3ccc(NC(=O)CCN4CCCC4)cc3nc3cc(NC(=O)CCN4CCCC4)ccc23)cc1, the IC50 (second compound 0.0316 µM) was > 10000 nM, the IC50 (second compound 0.1 µM) was > 10000 nM and the IC50 (second compound 0.316 µM) was > 10000 nM. For the same molecule, the IC50 (second compound 1 µM) was > 10000 nM, the IC50 (second compound 3.16 µM) was > 10000 nM and the IC50 (second compound 10 µM) was > 10000 nM. For the same molecule, the viability, T/C [1] was 107%, the viability, T/C [2] was 95.4% and the viability, T/C [3] was 94.9%. For the same molecule, the viability, T/C [4] was 95.1%, the viability, T/C [5] was 110% and the viability, T/C [6] was 123%. It also gave a viability, T/C [7] of 108%, a viability, T/C [8] of 96.8% and a viability, T/C [9] of 103%. It also gave a viability, T/C [10] of 95.4%, a viability, T/C [11] of 98.6% and a viability, T/C [12] of 119%. For the same molecule, the viability, T/C [13] was 95.1%, the viability, T/C [14] was 94.7% and the viability, T/C [15] was 90.6%. For the same molecule, the viability, T/C [16] was 101%, the viability, T/C [17] was 101% and the viability, T/C [18] was 128%. The viability, T/C [19] was 97.7%, the viability, T/C [20] was 92.2% and the viability, T/C [21] was 94.8%. The viability, T/C [22] was 102%, the viability, T/C [23] was 109% and the viability, T/C [24] was 133%. The viability, T/C [25] was 98.7%, the viability, T/C [26] was 90.7% and the viability, T/C [27] was 92.3%. The viability, T/C [28] was 93.4%, the viability, T/C [29] was 103% and the viability, T/C [30] was 126%. It also gave a viability, T/C [31] of 99.9%, a viability, T/C [32] of 92.2% and a viability, T/C [33] of 99.8%. It also gave a viability, T/C [34] of 100%, a viability, T/C [35] of 108% and a viability, T/C [36] of 107%.
For `CCc1c2c(nc3ccc(O)cc13)-c1cc3c(c(=O)n1C2)COC(=O)[C@]3(O)CC` + CN(C)c1ccc(Nc2c3ccc(NC(=O)CCN4CCCC4)cc3nc3cc(NC(=O)CCN4CCCC4)ccc23)cc1, the IC50 (second compound 0.0316 µM) was < 0.999 nM, the IC50 (second compound 0.1 µM) was < 0.999 nM and the IC50 (second compound 0.316 µM) was < 0.999 nM. The IC50 (second compound 1 µM) was < 0.999 nM, the IC50 (second compound 3.16 µM) was < 0.999 nM and the IC50 (second compound 10 µM) was < 0.999 nM. The viability, T/C (second compound 0.0316 µM, first compound 0.000999 µM) was 41.2%, the viability, T/C (second compound 0.0316 µM, first compound 0.00316 µM) was 16.1% and the viability, T/C (second compound 0.0316 µM, first compound 0.00999 µM) was 10.6%. The viability, T/C [1] was 15%, the viability, T/C (second compound 0.0316 µM, first compound 0.0999 µM) was 5.91% and the viability, T/C [3] was 0.85%. For the same molecule, the viability, T/C (second compound 0.1 µM, first compound 0.000999 µM) was 39%, the viability, T/C (second compound 0.1 µM, first compound 0.00316 µM) was 14.4% and the viability, T/C (second compound 0.1 µM, first compound 0.00999 µM) was 11.6%. The viability, T/C [7] was 13.6%, the viability, T/C (second compound 0.1 µM, first compound 0.0999 µM) was 5.7% and the viability, T/C [9] was 0.92%. For the same molecule, the viability, T/C (second compound 0.316 µM, first compound 0.000999 µM) was 40.8%, the viability, T/C (second compound 0.316 µM, first compound 0.00316 µM) was 14.2% and the viability, T/C (second compound 0.316 µM, first compound 0.00999 µM) was 11.6%. It also gave a viability, T/C [13] of 15.8%, a viability, T/C (second compound 0.316 µM, first compound 0.0999 µM) of 5.11% and a viability, T/C [15] of 1.17%. For the same molecule, the viability, T/C (second compound 1 µM, first compound 0.000999 µM) was 44.3%, the viability, T/C (second compound 1 µM, first compound 0.00316 µM) was 17.9% and the viability, T/C (second compound 1 µM, first compound 0.00999 µM) was 12.2%. The viability, T/C [19] was 15.3%, the viability, T/C (second compound 1 µM, first compound 0.0999 µM) was 5% and the viability, T/C [21] was 0.92%. It also gave a viability, T/C (second compound 3.16 µM, first compound 0.000999 µM) of 45.6%, a viability, T/C (second compound 3.16 µM, first compound 0.00316 µM) of 14.8% and a viability, T/C (second compound 3.16 µM, first compound 0.00999 µM) of 10.9%. For the same molecule, the viability, T/C [25] was 12.6%, the viability, T/C (second compound 3.16 µM, first compound 0.0999 µM) was 6.28% and the viability, T/C [27] was 1.02%. It also gave a viability, T/C (second compound 10 µM, first compound 0.000999 µM) of 46.9%, a viability, T/C (second compound 10 µM, first compound 0.00316 µM) of 18.2% and a viability, T/C (second compound 10 µM, first compound 0.00999 µM) of 10.9%. The viability, T/C [31] was 13%, the viability, T/C (second compound 10 µM, first compound 0.0999 µM) was 6.82% and the viability, T/C [33] was 0.96%.
`COc1cccc2c1C(=O)c1c(O)c3c(c(O)c1C2=O)CC(O)(C(=O)CO)CC3OC1CC(N)C(O)C(C)O1` (stereo unspecified) + CN(C)c1ccc(Nc2c3ccc(NC(=O)CCN4CCCC4)cc3nc3cc(NC(=O)CCN4CCCC4)ccc23)cc1 showed an IC50 (second compound 0.0316 µM) of 196 nM, an IC50 (second compound 0.1 µM) of 214 nM and an IC50 (second compound 0.316 µM) of 217 nM. For the same molecule, the IC50 (second compound 1 µM) was 222 nM, the IC50 (second compound 3.16 µM) was 229 nM and the IC50 (second compound 10 µM) was 233 nM. The viability, T/C [1] was 107%, the viability, T/C [2] was 70.2% and the viability, T/C [3] was 34%. It also gave a viability, T/C [4] of 18.7%, a viability, T/C [5] of 2.21% and a viability, T/C [6] of 0.12%. It also gave a viability, T/C [7] of 105%, a viability, T/C [8] of 75.2% and a viability, T/C [9] of 34.6%. It also gave a viability, T/C [10] of 18.5%, a viability, T/C [11] of 2.59% and a viability, T/C [12] of 0.11%. It also gave a viability, T/C [13] of 110%, a viability, T/C [14] of 79.7% and a viability, T/C [15] of 32.2%. The viability, T/C [16] was 18.3%, the viability, T/C [17] was 2.01% and the viability, T/C [18] was 0.1%. For the same molecule, the viability, T/C [19] was 107%, the viability, T/C [20] was 80.7% and the viability, T/C [21] was 33.2%. For the same molecule, the viability, T/C [22] was 17.7%, the viability, T/C [23] was 2.55% and the viability, T/C [24] was 0.13%. It also gave a viability, T/C [25] of 112%, a viability, T/C [26] of 82% and a viability, T/C [27] of 34.2%. For the same molecule, the viability, T/C [28] was 18.6%, the viability, T/C [29] was 2.88% and the viability, T/C [30] was 0.15%. For the same molecule, the viability, T/C [31] was 103%, the viability, T/C [32] was 77.5% and the viability, T/C [33] was 38.3%. For the same molecule, the viability, T/C [34] was 17.9%, the viability, T/C [35] was 4.36% and the viability, T/C [36] was 0.25%.

Reference: PubChem BioAssay AID2060485 (Molecular Pharmacology Branch, DTP, NCI, 2025)
